Laboratory results published in patent US20130072430A1, “METHODS FOR TREATMENT OR PROPHYLAXIS OF KIDNEY OR LIVER DYSFUNCTION” (NPS PHARMACEUTICALS, INC., priority 2010, published 2013).

Tested on: Human patients with short bowel syndrome
Assay: Example 2: liver biomarkers (albumin, gamma glutamyl transferase, total bilirubin, ALT, AST, ALP) in short bowel syndrome patients, every four weeks for 24 weeks
Assay type: in vivo
Details: 0.05 mg/kg/d; for Gamma Glutamyl Transferase Observed Value, Mean / Gamma Glutamyl Transferase Observed Value, Median / ALKALINE PHOSPHATASE Change from Baseline, Median / ALT Change from Baseline, Mean / ALT Change from Baseline, Median / ALT Observed Value, Mean / ALT Observed Value, Median / AST Change from Baseline, Mean / AST Change from Baseline, Median / AST Observed Value, Mean / AST Observed Value, Median / Albumin Change from Baseline, Mean / Albumin Change from Baseline, Median / Albumin Observed Value, Mean / Albumin Observed Value, Median / Alkaline Phosphatase Change from Baseline, Mean / Alkaline Phosphatase Observed Value, Mean / Alkaline Phosphatase Observed Value, Median / Bilirubin Change from Baseline, Mean / Bilirubin Change from Baseline, Median / Bilirubin Observed Value, Mean / Bilirubin Observed Value, Median / Gamma Glutamyl Transferase Change from Baseline, Mean / Gamma Glutamyl Transferase Change from Baseline, Median: n=38; for ALT >10% decrease from Baseline, % of subjects / ALT >10% decrease from Baseline, n subjects / ALT >10% increase from Baseline, % of subjects / ALT >10% increase from Baseline, n subjects / ALT Within 10% of Baseline, % of subjects / ALT Within 10% of Baseline, n subjects / AST >10% decrease from Baseline, % of subjects / AST >10% decrease from Baseline, n subjects / AST >10% increase from Baseline, % of subjects / AST >10% increase from Baseline, n subjects / AST Within 10% of Baseline, % of subjects / AST Within 10% of Baseline, n subjects / Albumin >10% decrease from Baseline, % of subjects / Albumin >10% decrease from Baseline, n subjects / Albumin >10% increase from Baseline, n subjects / Albumin Within 10% of Baseline, % of subjects / Albumin Within 10% of Baseline, n subjects / Alkaline Phosphatase >10% decrease from Baseline, % of subjects / Alkaline Phosphatase >10% decrease from Baseline, n subjects / Alkaline Phosphatase >10% increase from Baseline, % of subjects / Alkaline Phosphatase >10% increase from Baseline, n subjects / Alkaline Phosphatase Within 10% of Baseline, % of subjects / Alkaline Phosphatase Within 10% of Baseline, n subjects / Bilirubin >10% decrease from Baseline, % of subjects / Bilirubin >10% decrease from Baseline, n subjects / Bilirubin >10% increase from Baseline, % of subjects / Bilirubin >10% increase from Baseline, n subjects / Bilirubin Within 10% of Baseline, % of subjects / Bilirubin Within 10% of Baseline, n subjects: m=38
Method: To further confirm the results of Example 1, a further study was conducted involving more individuals and additional diagnostic biomarkers. Human patients with short bowel syndrome were divided into two groups: a control group (43 total individuals) to receive placebo, and an experimental group (42 total individuals) to receive teduglutide at 0.05 mg/kg/day throughout the study. Patients were treated by subcutaneous injection of placebo or the appropriate dose of teduglutide. Known biomarkers of liver function were monitored every four weeks, for 24 weeks. The liver biomarkers tested included albumin, gamma glutamyl transferase, total bilirubin, ALT and AST and ALP. Before administration of placebo or teduglutide, diagnostic biomarker levels were tested to establish a baseline for each individual.
To determine the effect of GLP-2 on the levels of the diagnostic biomarkers, the average level of each biomarker was measured for the placebo and teduglutide treated groups for each visit. Furthermore, the average change from baseline was calculated using the established baseline values. For FIGS. 17-28, p-values were calculated using the t-test.
P values are provided, which were calculated for each distribution of biomarker changes for each week using the chi-squared test.

SMILES: CC[C@H](C)[C@H](NC(=O)[C@H](Cc1ccccc1)NC(=O)[C@H](CC(=O)O)NC(=O)[C@H](CCCNC(=N)N)NC(=O)[C@H](C)NC(=O)[C@H](C)NC(=O)[C@H](CC(C)C)NC(=O)[C@H](CC(N)=O)NC(=O)[C@H](CC(=O)O)NC(=O)[C@H](CC(C)C)NC(=O)[C@@H](NC(=O)[C@@H](NC(=O)[C@H](CC(N)=O)NC(=O)[C@H](CCSC)NC(=O)[C@H](CCC(=O)O)NC(=O)[C@H](CC(=O)O)NC(=O)[C@H](CO)NC(=O)[C@H](Cc1ccccc1)NC(=O)[C@H](CO)NC(=O)CNC(=O)[C@H](CC(=O)O)NC(=O)CNC(=O)[C@@H](N)Cc1c[nH]cn1)[C@@H](C)O)[C@@H](C)CC)C(=O)N[C@@H](CC(N)=O)C(=O)N[C@@H](Cc1c[nH]c2ccccc12)C(=O)N[C@@H](CC(C)C)C(=O)N[C@H](C(=O)N[C@@H](CCC(N)=O)C(=O)N[C@H](C(=O)N[C@@H](CCCCN)C(=O)N[C@H](C(=O)N[C@H](C(=O)N[C@@H](CC(=O)O)C(=O)O)[C@@H](C)O)[C@@H](C)CC)[C@@H](C)O)[C@@H](C)CC [teduglutide]
- Gamma Glutamyl Transferase Observed Value, Mean (Week 16): 72.4 U/L
- Gamma Glutamyl Transferase Observed Value, Median (Week 16): 54 U/L
- ALT >10% decrease from Baseline, % of subjects (Week 20): (60.5%)
- ALT >10% decrease from Baseline, n subjects (Week 20): 23
- ALT >10% increase from Baseline, % of subjects (Week 20): (13.2%)
- ALT >10% increase from Baseline, n subjects (Week 20): 5
- ALT Within 10% of Baseline, % of subjects (Week 20): (26.3%)
- ALT Within 10% of Baseline, n subjects (Week 20): 10
- AST >10% decrease from Baseline, % of subjects (Week 20): (52.6%)
- AST >10% decrease from Baseline, n subjects (Week 20): 20
- AST >10% increase from Baseline, % of subjects (Week 20): (18.4%)
- AST >10% increase from Baseline, n subjects (Week 20): 7
- AST Within 10% of Baseline, % of subjects (Week 20): (28.9%)
- AST Within 10% of Baseline, n subjects (Week 20): 11
- Albumin >10% decrease from Baseline, % of subjects (Week 20): (2.6%)
- Albumin >10% decrease from Baseline, n subjects (Week 20): 1
- Albumin >10% increase from Baseline, n subjects (Week 20): 0
- Albumin Within 10% of Baseline, % of subjects (Week 20): (97.4%)
- Albumin Within 10% of Baseline, n subjects (Week 20): 37
- Alkaline Phosphatase >10% decrease from Baseline, % of subjects (Week 20): (60.5%)
- Alkaline Phosphatase >10% decrease from Baseline, n subjects (Week 20): 23
- Alkaline Phosphatase >10% increase from Baseline, % of subjects (Week 20): (7.9%)
- Alkaline Phosphatase >10% increase from Baseline, n subjects (Week 20): 3
- Alkaline Phosphatase Within 10% of Baseline, % of subjects (Week 20): (31.6%)
- Alkaline Phosphatase Within 10% of Baseline, n subjects (Week 20): 12
- Bilirubin >10% decrease from Baseline, % of subjects (Week 20): (65.8%)
- Bilirubin >10% decrease from Baseline, n subjects (Week 20): 25
- Bilirubin >10% increase from Baseline, % of subjects (Week 20): (21.1%)
- Bilirubin >10% increase from Baseline, n subjects (Week 20): 8
- Bilirubin Within 10% of Baseline, % of subjects (Week 20): (13.2%)
- Bilirubin Within 10% of Baseline, n subjects (Week 20): 5
- ALKALINE PHOSPHATASE Change from Baseline, Median (Week 20): −25.5 U/L
- ALT Change from Baseline, Mean (Week 20): −10.3 U/L
- ALT Change from Baseline, Median (Week 20): −6.5 U/L
- ALT Observed Value, Mean (Week 20): 34.8 U/L
- ALT Observed Value, Median (Week 20): 28.5 U/L
- AST Change from Baseline, Mean (Week 20): −4.2 U/L
- AST Change from Baseline, Median (Week 20): −2.5 U/L
- AST Observed Value, Mean (Week 20): 28.4 U/L
- AST Observed Value, Median (Week 20): 24.5 U/L
- Albumin Change from Baseline, Mean (Week 20): -0.6 g/L
- Albumin Change from Baseline, Median (Week 20): -1 g/L
- Albumin Observed Value, Mean (Week 20): 41.8 g/L
- Albumin Observed Value, Median (Week 20): 43 g/L
- Alkaline Phosphatase Change from Baseline, Mean (Week 20): −28.6 U/L
- Alkaline Phosphatase Observed Value, Mean (Week 20): 109.8 U/L
- Alkaline Phosphatase Observed Value, Median (Week 20): 94.5 U/L
- Bilirubin Change from Baseline, Mean (Week 20): -2.76 µmol/L
- Bilirubin Change from Baseline, Median (Week 20): -1.7 µmol/L
- Bilirubin Observed Value, Mean (Week 20): 9.88 µmol/L
- Bilirubin Observed Value, Median (Week 20): 7.85 µmol/L
- Gamma Glutamyl Transferase Change from Baseline, Mean (Week 20): −9.6 U/L
- Gamma Glutamyl Transferase Change from Baseline, Median (Week 20): −8 U/L
- Gamma Glutamyl Transferase Observed Value, Mean (Week 20): 70.1 U/L
- Gamma Glutamyl Transferase Observed Value, Median (Week 20): 47.5 U/L
- ALT >10% decrease from Baseline, % of subjects (Week 24): (63.2%)
- ALT >10% decrease from Baseline, n subjects (Week 24): 24
- ALT >10% increase from Baseline, % of subjects (Week 24): (10.5%)
- ALT >10% increase from Baseline, n subjects (Week 24): 4
- ALT Within 10% of Baseline, % of subjects (Week 24): (26.3%)
- ALT Within 10% of Baseline, n subjects (Week 24): 10
- AST >10% decrease from Baseline, % of subjects (Week 24): (63.2%)
- AST >10% decrease from Baseline, n subjects (Week 24): 24
- AST >10% increase from Baseline, % of subjects (Week 24): (15.8%)
- AST >10% increase from Baseline, n subjects (Week 24): 6
- AST Within 10% of Baseline, % of subjects (Week 24): (21.1%)
- AST Within 10% of Baseline, n subjects (Week 24): 8
- Albumin >10% decrease from Baseline, % of subjects (Week 24): (5.3%)
- Albumin >10% decrease from Baseline, n subjects (Week 24): 2
- Albumin >10% increase from Baseline, n subjects (Week 24): 0
- Albumin Within 10% of Baseline, % of subjects (Week 24): (94.7%)
- Albumin Within 10% of Baseline, n subjects (Week 24): 36
- Alkaline Phosphatase >10% decrease from Baseline, % of subjects (Week 24): (60.5%)
- Alkaline Phosphatase >10% decrease from Baseline, n subjects (Week 24): 23
- Alkaline Phosphatase >10% increase from Baseline, % of subjects (Week 24): (15.8%)
- Alkaline Phosphatase >10% increase from Baseline, n subjects (Week 24): 6
- Alkaline Phosphatase Within 10% of Baseline, % of subjects (Week 24): (23.7%)
- Alkaline Phosphatase Within 10% of Baseline, n subjects (Week 24): 9
- Bilirubin >10% decrease from Baseline, % of subjects (Week 24): (68.4%)
- Bilirubin >10% decrease from Baseline, n subjects (Week 24): 26
- Bilirubin >10% increase from Baseline, % of subjects (Week 24): (15.8%)
- Bilirubin >10% increase from Baseline, n subjects (Week 24): 6
- Bilirubin Within 10% of Baseline, % of subjects (Week 24): (15.8%)
- Bilirubin Within 10% of Baseline, n subjects (Week 24): 6
- ALKALINE PHOSPHATASE Change from Baseline, Median (Week 24): −24.5 U/L
- ALT Change from Baseline, Mean (Week 24): −13.5 U/L
- ALT Change from Baseline, Median (Week 24): −7.5 U/L
- ALT Observed Value, Mean (Week 24): 28.5 U/L
- ALT Observed Value, Median (Week 24): 23.5 U/L
- AST Change from Baseline, Mean (Week 24): −5.8 U/L
- AST Change from Baseline, Median (Week 24): −5 U/L
- AST Observed Value, Mean (Week 24): 25.8 U/L
- AST Observed Value, Median (Week 24): 23 U/L
- Albumin Change from Baseline, Mean (Week 24): -0.4 g/L
- Albumin Change from Baseline, Median (Week 24): 0 g/L
- Albumin Observed Value, Mean (Week 24): 41.9 g/L
- Albumin Observed Value, Median (Week 24): 42 g/L
- Alkaline Phosphatase Change from Baseline, Mean (Week 24): −29.2 U/L
- Alkaline Phosphatase Observed Value, Mean (Week 24): 106.2 U/L
- Alkaline Phosphatase Observed Value, Median (Week 24): 88 U/L
- Bilirubin Change from Baseline, Mean (Week 24): -3.68 µmol/L
- Bilirubin Change from Baseline, Median (Week 24): -2.35 µmol/L
- Bilirubin Observed Value, Mean (Week 24): 8.64 µmol/L
- Bilirubin Observed Value, Median (Week 24): 6.8 µmol/L
- Gamma Glutamyl Transferase Change from Baseline, Mean (Week 24): −13.6 U/L
- Gamma Glutamyl Transferase Change from Baseline, Median (Week 24): −6 U/L
- Gamma Glutamyl Transferase Observed Value, Mean (Week 24): 60.4 U/L
- Gamma Glutamyl Transferase Observed Value, Median (Week 24): 40.5 U/L
